Consider 31 compounds from patent US12252488B2 (Nimbus Saturn, Inc., priority 2021, dated 2025).

Each structure is given as a SMILES string.

The target of the experiment is T1, HPK1 (Homo sapiens, UniProt Q92918).
T1 construct: purchased Invitrogen
T1 sequence (Q92918 whole entry): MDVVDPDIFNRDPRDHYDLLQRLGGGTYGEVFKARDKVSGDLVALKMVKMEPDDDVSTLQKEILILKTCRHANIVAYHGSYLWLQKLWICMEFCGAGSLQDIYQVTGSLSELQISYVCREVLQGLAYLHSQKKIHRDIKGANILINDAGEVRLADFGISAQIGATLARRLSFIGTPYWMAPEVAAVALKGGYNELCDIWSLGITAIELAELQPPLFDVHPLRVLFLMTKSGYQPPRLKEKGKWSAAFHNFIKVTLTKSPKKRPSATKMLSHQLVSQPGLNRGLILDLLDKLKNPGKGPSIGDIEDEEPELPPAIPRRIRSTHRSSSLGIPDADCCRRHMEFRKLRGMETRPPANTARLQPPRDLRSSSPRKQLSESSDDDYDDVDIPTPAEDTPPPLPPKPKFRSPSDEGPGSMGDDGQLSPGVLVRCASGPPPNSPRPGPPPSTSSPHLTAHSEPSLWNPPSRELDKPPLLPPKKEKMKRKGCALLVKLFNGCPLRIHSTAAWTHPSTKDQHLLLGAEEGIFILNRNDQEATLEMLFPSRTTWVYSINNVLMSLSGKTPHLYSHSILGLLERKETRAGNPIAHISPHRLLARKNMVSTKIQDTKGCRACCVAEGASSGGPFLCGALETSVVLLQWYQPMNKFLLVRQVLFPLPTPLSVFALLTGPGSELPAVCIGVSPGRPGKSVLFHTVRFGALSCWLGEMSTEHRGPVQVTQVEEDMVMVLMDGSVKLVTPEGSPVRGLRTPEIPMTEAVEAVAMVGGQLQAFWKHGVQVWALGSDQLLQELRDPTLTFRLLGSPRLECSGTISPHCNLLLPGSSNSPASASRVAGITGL
As to the kind of experiment: HPK1 biochemical enzyme assay (microfluidic mobility shift assay). The note with it: 1000 uM (1 mM) ATP; Caliper mobility shift; 1.5 nM HPK1; 30 min preincubation; read-out: HPK1 1000UMATP caliper IC50. Put shortly:
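IC50 values, grouped into activity categories, come from 10-point titrations (top final 3 μM) preincubated 30 min with 1.5 nM enzyme and substrate at pH 7.4. ATP (1 mM), substrate (1 μM) and MgCl2 (5 mM) then added; after 60 min at RT, product separated by microfluidic mobility shift.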
Usually IC50 stands for the point on the concentration scale where inhibition reaches its midpoint. Regarding `CC(C)(C)c1ccc(F)c(-c2cc(Nc3ccc(N4CCC(O)CC4)cn3)c3c(=O)[nH]ccc3n2)c1` [I-96, 2-(5-tert-butyl-2-fluoro-phenyl)-4-[[5-(4-hydroxy-1-piperidyl)-2-pyridyl]amino]-6H-1,6-naphthyridin-5-one], the IC50 is 100 to 1000 nM.
On to `O=c1[nH]ccc2nc(-c3cc(C4CCC4)ccc3F)cc(Nc3ccc(N4CCC(O)CC4)cn3)c12` [I-97, 2-(5-cyclobutyl-2-fluoro-phenyl)-4-[[5-(4-hydroxy-1-piperidyl)-2-pyridyl]amino]-6H-naphthyridin-5-one], for which the IC50 is 100 to 1000 nM.
Take `N#CCc1ccc(F)c(-c2cc(Nc3ccc(N4CCC(O)CC4)cn3)c3c(=O)[nH]ccc3n2)c1` [I-98, 2-[4-fluoro-3-[4-[[5-(4-hydroxy-1-piperidyl)-2-pyridyl]amino]-5-oxo-6H-1,6-naphthyridin-2-yl]phenyl] acetonitrile]: the half-maximal inhibitory concentration (IC50) was no more than 100 nM.
The result for `CC(C)c1cccc(-c2cc(Nc3ccc(N4CCC(O)CC4)cn3)c3c(=O)[nH]ccc3n2)c1` [I-99, 4-[[5-(4-hydroxy-1-piperidyl)-2-pyridyl]amino]-2-(3-isopropyl-phenyl)-6H-1,6-naphthyridin-5-one] reads 100 to 1000 nM.
Take `COc1cc(OC)cc(-c2cc(Nc3ccc(N4CCC(O)CC4)cn3)c3c(=O)[nH]ccc3n2)c1` [I-100, 2-(3,5-dimethoxyphenyl)-4-[[5-(4-hydroxy-1-piperidyl)-2-pyridyl]amino]-6H-1,6-naphthyridin-5-one]: the IC50 is no more than 100 nM.
`CC(C)c1ccc(Cl)c(-c2cc(Nc3ccc(N4CCC(O)CC4)cn3)c3c(=O)[nH]ccc3n2)c1` [I-101, 2-(2-chloro-5-isopropyl-phenyl)-4-[[5-(4-hydroxy-1-piperidyl)-2-pyridyl]amino]-6H-1,6-naphthyridin-5-one]: the concentration for half-maximal inhibition (IC50) was no more than 100 nM.
The result for `CC1(c2ccc(F)c(-c3cc(Nc4ccc(N5CCC(O)CC5)cn4)c4c(=O)[nH]ccc4n3)c2)CC1` [I-102, 2-[2-fluoro-5-(1-methylcyclo-propyl)phenyl]-4-[[5-(4-hydroxy-1-piperidyl)-2-pyridyl]amino]-6H-1,6-naphthyridin-5-one] reads no more than 100 nM; that for `O=c1[nH]ccc2nc(-c3cc(C4COC4)ccc3F)cc(Nc3ccc(N4CCC(O)CC4)cn3)c12` [I-103, 2-[2-fluoro-5-(oxetan-3-yl)phenyl]-4-[[5-(4-hydroxy-1-piperidyl)-2-pyridyl]amino]-6H-1,6-naphthyridin-5-one], no more than 100 nM; that for `CC(C)(C#N)c1ccc(F)c(-c2cc(Nc3ccc(N4CCC(O)CC4)cn3)c3c(=O)[nH]ccc3n2)c1` [I-104, 2-[4-fluoro-3-[4-[[5-(4-hydroxy-1-piperidyl)-2-pyridyl]amino]-5-oxo-6H-1,6-naphthyridin-2-yl]phenyl]-2-methyl-propane-nitrile], greater than 1000 nM.
To `N#CC1(c2ccc(F)c(-c3cc(Nc4ccc(N5CCC(O)CC5)cn4)c4c(=O)[nH]ccc4n3)c2)CC1` [I-105, 1-[4-fluoro-3-[4-[[5-(4-hydroxy-1-piperidyl)-2-pyridyl]amino]-5-oxo-6H-1,6-naphthyridin-2-yl]phenyl] cyclo-propane-carbonitrile] belongs greater than 1000 nM.
Consider `O=c1[nH]ccc2nc(-c3cc(OC(F)(F)F)ccc3F)cc(Nc3ccc(N4CCC(O)CC4)cn3)c12` [I-106, 2-[2-fluoro-5-(trifluoro-methoxy)phenyl]-4-[[5-(4-hydroxy-1-piperidyl)-2-pyridyl]amino]-6H-1,6-naphthyridin-5-one], for which the IC50 is no more than 100 nM.
To `O=c1[nH]ccc2nc(-c3cc4cc[nH]c4cc3F)cc(Nc3ccc(N4CCC(O)CC4)cn3)c12` [I-107, 2-(6-fluoro-1H-indol-5-yl)-4-[[5-(4-hydroxy-1-piperidyl)-2-pyridyl]amino]-6H-1,6-naphthyridin-5-one] belongs 100 to 1000 nM.
The result for `CN(C(=O)C1CC1)c1ccc(-c2cc(Nc3ccc(N4CCC(O)CC4)cn3)c3c(=O)[nH]ccc3n2)c(F)c1` [I-108, N-[3-fluoro-4-[4-[[5-(4-hydroxy-1-piperidyl)-2-pyridyl]amino]-5-oxo-6H-1,6-naphthyridin-2-yl]phenyl]-N-methyl-cyclopropane-carboxamide] reads no more than 100 nM; that for `CC(C)c1ccc(F)c(-c2cc(Nc3ccc(N4CCN(C)CC4)cn3)c3c(=O)[nH]ccc3n2)c1` [I-109, 2-(2-fluoro-5-isopropyl-phenyl)-4-[[5-(4-methyl-piperazin-1-yl)-2-pyridyl]amino]-6H-1,6-naphthyridin-5-one], no more than 100 nM.
To `CC(C)c1ccc(F)c(-c2cc(Nc3ccc(N4CCNCC4)cn3)c3c(=O)[nH]ccc3n2)c1` [I-110, 2-(2-fluoro-5-isopropyl-phenyl)-4-[(5-piperazin-1-yl-2-pyridyl)amino]-6H-1,6-naphthyridin-5-one] belongs no more than 100 nM; to `O=C(Nc1ccc(-c2cc(Nc3ccc(N4CCC(O)CC4)cn3)c3c(=O)[nH]ccc3n2)c(F)c1)C1CCCCC1` [I-111, N-[3-fluoro-4-[4-[[5-(4-hydroxy-1-piperidyl)-2-pyridyl]amino]-5-oxo-6H-1,6-naphthyridin-2-yl]phenyl] cyclohexane carboxamide], greater than 1000 nM.
Regarding `COc1cc(-c2cc(Nc3ccc(N4CCC(O)CC4)cn3)c3c(=O)[nH]ccc3n2)c(F)cc1C(=O)N1CCCCC1` [I-112, 2-[2-fluoro-5-methoxy-4-(piperidine-1-carbonyl)phenyl]-4-[[5-(4-hydroxy-1-piperidyl)-2-pyridyl]amino]-6H-1,6-naphthyridin-5-one], the IC50 is greater than 1000 nM.
To `Cc1c(C(=O)N2CCCCC2)ccc(-c2cc(Nc3ccc(N4CCC(O)CC4)cn3)c3c(=O)[nH]ccc3n2)c1F` [I-113, 2-[2-fluoro-3-methyl-4-(piperidine-1-carbonyl)phenyl]-4-[[5-(4-hydroxy-1-piperidyl)-2-pyridyl]amino]-6H-1,6-naphthyridin-5-one] belongs 100 to 1000 nM; to `Cc1cc(-c2cc(Nc3ccc(N4CCC(O)CC4)cn3)c3c(=O)[nH]ccc3n2)c(F)cc1C(=O)N1CCCCC1` [I-114, 2-[2-fluoro-5-methyl-4-(piperidine-1-carbonyl)phenyl]-4-[[5-(4-hydroxy-1-piperidyl)-2-pyridyl]amino]-6H-1,6-naphthyridin-5-one], no more than 100 nM.
The result for `O=C(c1ccc(-c2cc(Nc3ccc(N4CCC(O)CC4)cn3)c3c(=O)[nH]ccc3n2)c(F)c1)N1CCCC1` [I-115, 2-[2-fluoro-4-(pyrrolidine-1-carbonyl)phenyl]-4-[[5-(4-hydroxy-1-piperidyl)-2-pyridyl]amino]-6H-1,6-naphthyridin-5-one] reads no more than 100 nM.
To `CC(C)(O)c1ccc(F)c(-c2cc(Nc3ccc(N4CCC(O)CC4)cn3)c3c(=O)[nH]ccc3n2)c1` [I-116, 2-[2-fluoro-5-(1-hydroxy-1-methyl-ethyl)phenyl]-4-[[5-(4-hydroxy-1-piperidyl)-2-pyridyl]amino]-6H-1,6-naphthyridin-5-one] belongs 100 to 1000 nM; to `CN(C)Cc1ccc(F)c(-c2cc(Nc3ccc(N4CCC(O)CC4)cn3)c3c(=O)[nH]ccc3n2)c1` [I-117, 2-[5-[(dimethyl-amino)methyl]-2-fluoro-phenyl]-4-[[5-(4-hydroxy-1-piperidyl)-2-pyridyl]amino]-6H-1,6-naphthyridin-5-one], 100 to 1000 nM.
In the case of `O=c1[nH]ccc2nc(-c3cc4[nH]ccc4cc3F)cc(Nc3ccc(N4CCC(O)CC4)cn3)c12` [I-118, 2-(5-fluoro-1H-indol-6-yl)-4-[[5-(4-hydroxy-1-piperidyl)-2-pyridyl]amino]-6H-1,6-naphthyridin-5-one], the IC50 lay in the range of 100 to 1000 nM.
Turning to `O=C(c1ccc(-c2cc(Nc3ccc(N4CCC(O)CC4)cn3)c3c(=O)[nH]ccc3n2)c(F)c1)N1CCNCC1` [I-119, 2-[2-fluoro-4-(piperazine-1-carbonyl)phenyl]-4-[[5-(4-hydroxy-1-piperidyl)-2-pyridyl]amino]-6H-1,6-naphthyridin-5-one], the IC50 lay in the range of 100 to 1000 nM.
The result for `O=C(c1ccc(-c2cc(Nc3ccc(N4CCC(O)CC4)cn3)c3c(=O)[nH]ccc3n2)c(F)c1)N1CCOCC1` [I-120] reads 100 to 1000 nM; that for `CC(C)c1ccc(F)c(-c2cc(Nc3ccc(N4CCC5(CCOCC5)CC4)cn3)c3c(=O)[nH]ccc3n2)c1` [I-121, 2-(2-fluoro-5-isopropyl-phenyl)-4-[[5-(3-oxa-9-azaspiro [5.5]undecan-9-yl)-2-pyridyl]amino]-6H-1,6-naphthyridin-5-one], no more than 100 nM; that for `CC(C)c1ccc(F)c(-c2cc(Nc3ccc(N4[C@H](C)COC[C@H]4C)cn3)c3c(=O)[nH]ccc3n2)c1` [I-122, 4-[[5-[(3R,5R)-3,5-dimethyl-morpholin-4-yl]-2-pyridyl]amino]-2-(2-fluoro-5-isopropyl-phenyl)-6H-1,6-naphthyridin-5-one], 100 to 1000 nM.
The result for `CC(O)(c1ccc(F)c(-c2cc(Nc3ccc(N4CCC(O)CC4)cn3)c3c(=O)[nH]ccc3n2)c1)C(F)(F)F` (stereo not shown) [I-123, 2-[2-fluoro-5-(2,2,2-trifluoro-1-hydroxy-1-methyl-ethyl)phenyl]-4-[[5-(4-hydroxy-1-piperidyl)-2-pyridyl]amino]-6H-1,6-naphthyridin-5-one] reads no more than 100 nM; that for `O=C(c1ccc(-c2cc(Nc3ccc(N4CCC(O)CC4)cn3)c3c(=O)[nH]ccc3n2)c(F)c1)N1CC2CCC1CC2` [I-124, 2-[4-(3-azabicyclo [2.2.2]octane-3-carbonyl)-2-fluoro-phenyl]-4-[[5-(4-hydroxy-1-piperidyl)-2-pyridyl]amino]-6H-1,6-naphthyridin-5-one], 100 to 1000 nM.
The result for `COC(=O)c1ccc(-c2cc(Nc3ccc(N4CCC(O)CC4)cn3)c3c(=O)[nH]ccc3n2)c(F)c1` [I-125, Methyl 3-fluoro-4-[4-[[5-(4-hydroxy-1-piperidyl)-2-pyridyl]amino]-5-oxo-6H-1,6-naphthyridin-2-yl]benzoate] reads no more than 100 nM; that for `O=C(c1ccc(-c2cc(Nc3ccc(N4CCC(O)CC4)cn3)c3c(=O)[nH]ccc3n2)c(F)c1)N1CCC1` [I-126, 2-[4-(azetidine-1-carbonyl)-2-fluoro-phenyl]-4-[[5-(4-hydroxy-1-piperidyl)-2-pyridyl]amino]-6H-1,6-naphthyridin-5-one], 100 to 1000 nM.
